Experimental data taken from patent publication US4496735A, “Certain pyridyloxy-or-thio-phenyl propenoic acid derivatives” (Maruko Seiyaku Co., Ltd., priority 1982, dated 1985).
Counter-ions that a name gives are not always drawn. Like-named read-outs stand apart in the source and are kept apart here.

Assays:
[1] = system: thromboxane A2 synthesis (thromboxane A2 synthetase); experiment: Inhibition of Thromboxane A2 Synthesis (collagen-stimulated rabbit platelet-rich plasma, thromboxane B2 by radioimmunoassay); assay type: cell-based; details: Oryctolagus cuniculus, 5 min, read-out: IC50 on Thromboxane A2 Synthesis
Procedure: Rabbit platelet-rich plasma (PRP, 6×10^8 platelets/ml) and the test compound was pre-incubated at 37° C. for 5 minutes and, after adding collagen to the mixture at a concentration of 13 ug/ml, the resulting mixture was incubated at 37° C. for 5 minutes. Then, the reaction was terminated by rendering the mixture […] with hydrochloric acid and the amount of thromboxane B2 produced was quantitatively determined by the radioimmunoassay.

[2] = system: platelet aggregation (collagen), rabbit platelet-rich plasma; experiment: Inhibition of Platelet Aggregation induced by collagen; assay type: cell-based; details: for IC50: Oryctolagus cuniculus, Platelet, rabbit PRP, collagen 10 ug/ml, 37° C.; for inhibitory activity on platelet aggregation induced by collagen (in words): conclusion in words
Procedure: (§1) Rabbit platelet-rich plasma was pre-incubated at 37° C. for 1 minute and, after adding the test compound, arachidonic acid or collagen was added thereto at a concentration of 100 ug/ml or 10 ug/ml, respectively. The aggregation of platelets was recorded using an aggregometer and shown in Table 2 in terms of IC50 value.

[3] = system: platelet aggregation (arachidonic acid), rabbit platelet-rich plasma; experiment: Inhibition of Platelet Aggregation induced by arachidonic acid; assay type: cell-based; details: for IC50: Oryctolagus cuniculus, Platelet, rabbit PRP, arachidonic acid 100 ug/ml, 37° C.; for inhibitory activity on platelet aggregation induced by arachidonic acid (in words): conclusion in words
Procedure: as §1

Acute Toxicity = assay type: in vivo; details: mouse, in vivo, ip; ddY male mice; i.p.; mortality one week after administration; Behrens-Karber method
Procedure: (§2) The test compound was administered intraperitoneally to ddY male mice weighing 22 to 24 g and LD50 was determined by the Behrens-Karber method [Arch. exp. Path. Pharmak., 177, 379 (1935)] from the mortality one week after administration.

[4] = system: Arachidonic Acid-Induced Sudden Death; experiment: Effect on Arachidonic Acid-Induced Sudden Death in Rabbit; assay type: in vivo, male rabbits; details: for % Protection / Ratio of Mortality/Total Number: 20 mg/kg i.p. 2 hours before 1.4 mg/kg sodium arachidonate (ear vein); for % Protection: 30 minutes; for Ratio of Mortality/Total Number: mortality at 30 minutes; for protection against the arachidonic acid-induced sudden death in rabbits (in words): conclusion in words
Source text: The compounds of the present invention having the formula (I) and the pharmaceutically acceptable salts thereof thus obtained have a strong inhibitory activity on thromboxane A2 synthetase. A typical in vivo test method for evaluating compounds which may be useful as a so-called anti-thrombotic agent has been reported in literature and this method comprises determining the prevention of sudden death of rabbits caused by arachidonic acid, as reported in, for example, Agents and Actions, 7, 481 (1977); Pharmacology, 14, 522 (1976); Science, 183, 1085 (1974), etc.
More specifically, sodium arachidonate is administered intravenously to rabbits at a dose of about 1.4 mg/kg to cause a sudden death within a few minutes due to platelet aggregation and lung embolus.
According to the method of Silver et al [Science, 183, 1085 (1974)], 20 mg/kg of the test compound was administered intraperitoneally into male rabbits (8 or 10 rabbits per group), each weighing 2.2 to 2.8 kg, and 2 hours after the administration 1.4 mg/kg of sodium arachidonate was administered to the rabbit from an ear vein. The mortality of the rabbits was then calculated 30 minutes after the administration of sodium arachidonate.

ddY male mice = experiment: Acute Toxicity; assay type: in vivo; details: i.p., mortality one week after administration, Behrens-Karber method, 10080 min
Procedure: as §2

[5] = rabbit PRP, 6×10^8 platelets/ml, collagen 13 ug/ml, 37° C., 5 minutes

Row | SMILES | IC50 [1, 5] | IC50 [2] | IC50 [3] | inhibitory activity on platelet aggregation induced by arachidonic acid (in words) [3] | inhibitory activity on platelet aggregation induced by collagen (in words) [2] | LD50 at 168 h (Acute Toxicity) | % Protection [4] | Ratio of Mortality/Total Number [4] | protection against the arachidonic acid-induced sudden death in rabbits (in words) [4] | IC50 [1] | LD50 (ddY male mice)
1 | CC(=Cc1ccc(Sc2ccncc2)cc1)C(=O)O [Compound F, 2-Methyl-3-[4-(4-pyridylthio)phenyl]propenoic acid hydrochloride] | 0.31 µM | 22 µM |  |  |  |  |  |  |  |  | 
2 | CC(=Cc1ccc(Cc2cccnc2)cc1)C(=O)O.Cl [Compound C, 2-Methyl-3-[4-(3-pyridylmethyl)phenyl]propenoic acid hydrochloride, reference compound] | 0.22 µM | 420 µM | > 1000 µM | very weak inhibitory activity | very weak inhibitory activity | 220 mg/kg |  |  |  |  | 
3 | CC(=Cc1ccc(Oc2cccnc2)cc1)C(N)=O.Cl [Compound G, 2-Methyl-3-[4-(3-pyridyloxy)phenyl]propenamide hydrochloride] | 0.56 µM | 56 µM | 335 µM |  |  | 310 mg/kg |  |  |  |  | 
4 | CC(=Cc1ccc(Oc2cccnc2)cc1)C(=O)NC1CCCCC1.Cl [Compound E, N-Cyclohexyl-2-methyl-3-[4-(3-pyridyloxy)phenyl]propenamide hydrochloride] | 5.9 µM | 47 µM | 31 µM |  |  | 210 mg/kg | 75% | 2/8 | strong protection |  | 
5 | Cl.O=C(O)c1ccc(OCCn2ccnc2)cc1 [Compound B, 4-(2-Imidazol-1-ylethoxy)benzoic acid hydrochloride, reference compound] |  | 400 µM | > 1000 µM | very weak inhibitory activity | very weak inhibitory activity |  |  |  |  | 5.7 µM | 
6 | CC(=Cc1ccc(Oc2cccnc2)cc1)C(=O)O.Cl [Compound D, 2-Methyl-3-[4-(3-pyridyloxy)phenyl]propenoic acid hydrochloride] | 1 µM | 36 µM |  |  |  | 350 mg/kg | 100% | 0/10 | strong protection |  | 
7 | CCCCCCCCCn1ccnc1 [Compound A, Nonylimidazole, reference compound] |  |  |  |  |  |  | 50% | 5/10 |  |  | 59 mg/kg
